{"source": "patent US20100144755A1", "about": "(Glaxo Group Limited, priority 2006, published 2010)", "note": "Counter-ions that a name gives are not always drawn.", "data": [{"test_system": "influx of neutrophils to the lung in LPS-challenged rats", "experiment": "Rat LPS neutrophilia model", "format": "in vivo", "settings": "LPS aerosol, intratracheal dosing, in at least one of the range of conditions tested, significance p<0.05", "procedure": "Rat LPS Neutrophilia Model\nThe effect of compounds on the influx of neutrophils to the lung in LPS-challenged rats is evaluated as follows. The test compound is suspended in one of the following solutions: 0.5% tween 80/PBS, 0.5% tween 80/saline, 10% EtOH/saline (with pH adjusted to 2.0, or 8.0 with HCl, or unadjusted), Saline @pH 2.0, 6.5 or 8.0, 0.5% Tragacanth, 1% DMSO/20% Encapsin/Saline, or acidified 5% Tragacanth. The suspension process may be aided by the use of a glass homogenizer. For intratracheal administration, the animals are anesthetized with inhaled isoflurane and placed in a supine position, the trachea is intubated with a steel gavage needle (1.5 inch, 22 gauge, small ball) or a Penn-Century Microsprayer Aerosolizer (model IA-1B) and 200 ul of dosing solution is delivered. The animals are visually monitored during the recovery process, which typically occurs within two minutes. It is noted that the test compounds may be alternatively administered via the microsprayer in a dry powder blend with a suitable excipient, such as lactose.\nRats treated with compound or vehicle (15 min-24 hours pretreatment) are exposed to an LPS aerosol (100 ug/ml) for 15 min. Four hours later the rats are euthanized with pentobarbital (100 mg/kg, i.p.) and the airways are lavaged with 5 washes of 5 ml of phosphate buffered saline. The harvested cells are stained (Diffquick) and counted to determine total and differential cell data. […] Inhibition of neutrophil levels relative to no compound controls is calculated based on the differential counts.\nThe data is obtained as % inhibition using a particular concentration and pretreat time.", "values": [{"smiles": "CCN(CC)CCCNc1nc(-c2cc(C(=O)NCC3CC3)ccc2C)c2ccc(=O)n(-c3c(F)cccc3F)c2n1", "note": "[Example 138, N-(cyclopropylmethyl)-3-[2-{[3-(diethylamino)propyl]amino}-8-(2,6-difluorophenyl)-7-oxo-7,8-dihydropyrido[2,3-d]pyrimidin-4-yl]-4-methylbenzamide trifluoroacetate]", "inhibition of neutrophilia": "statistically nonsignificant inhibition"}, {"smiles": "CCN(CC)CCCNc1nc(-c2cc(C(=O)Nc3ccc(F)cc3)ccc2C)c2ccc(=O)n(-c3c(F)cccc3F)c2n1", "note": "[Example 160, 3-[2-{[3-(diethylamino)propyl]amino}-8-(2,6-difluorophenyl)-7-oxo-7,8-dihydropyrido[2,3-d]pyrimidin-4-yl]-N-(4-fluorophenyl)-4-methylbenzamide]", "inhibition of neutrophilia": "statistically significant inhibition"}, {"smiles": "CNCCNc1nc(-c2cc(C(=O)NCC3CC3)ccc2C)c2ccc(=O)n(-c3c(F)cccc3F)c2n1", "note": "[Example 4]", "inhibition of neutrophilia": "statistically significant inhibition"}, {"smiles": "CCCNC(=O)c1ccc(C)c(-c2nc(NCCCN(CC)CC)nc3c2ccc(=O)n3-c2c(F)cccc2F)c1", "note": "[Example 122, 3-[2-{[3-(diethylamino)propyl]amino}-8-(2,6-difluorophenyl)-7-oxo-7,8-dihydropyrido[2,3-d]pyrimidin-4-yl]-4-methyl-N-propylbenzamide]", "inhibition of neutrophilia": "statistically nonsignificant inhibition"}, {"smiles": "CNCCNc1nc(-c2cc(C(=O)NCCc3ccccc3)ccc2C)c2ccc(=O)n(-c3c(F)cccc3F)c2n1", "note": "[Example 29, 3-(8-(2,6-difluorophenyl)-2-{[2-(methylamino)ethyl]amino}-7-oxo-7,8-dihydropyrido[2,3-d]pyrimidin-4-yl)-4-methyl-N-(2-phenylethyl)benzamide]", "inhibition of neutrophilia": "statistically significant inhibition"}, {"smiles": "CNC1CCN(c2nc(-c3cc(C(=O)NC(C)C)ccc3C)c3ccc(=O)n(-c4c(F)cccc4F)c3n2)CC1", "note": "[113(b), 3-{8-(2,6-difluorophenyl)-2-[4-(methylamino)-1-piperidinyl]-7-oxo-7,8-dihydropyrido[2,3-d]pyrimidin-4-yl}-4-methyl-N-(1-methylethyl)benzamide]", "inhibition of neutrophilia": "statistically nonsignificant inhibition"}, {"smiles": "CCN(CC)CCCNc1nc(-c2cc(C(=O)N[C@@H](C)c3ccccc3)ccc2C)c2ccc(=O)n(-c3c(F)cccc3F)c2n1", "note": "[Example 149, 3-[2-{[3-(diethylamino)propyl]amino}-8-(2,6-difluorophenyl)-7-oxo-7,8-dihydropyrido[2,3-d]pyrimidin-4-yl]-4-methyl-N-[(1S)-1-phenylethyl]benzamide]", "inhibition of neutrophilia": "inactive"}, {"smiles": "Cc1ccc(C(=O)Nc2ccc(F)cc2)cc1-c1nc(N(C)CCN(C)C)nc2c1ccc(=O)n2-c1c(F)cccc1F", "note": "[Example 99, 3-{8-(2,6-difluorophenyl)-2-[[2-(dimethylamino)ethyl](methyl)amino]-7-oxo-7,8-dihydropyrido[2,3-d]pyrimidin-4-yl}-N-(4-fluorophenyl)-4-methylbenzamide]", "inhibition of neutrophilia": "statistically nonsignificant inhibition"}, {"smiles": "Cc1ccc(C(=O)Nc2nccs2)cc1-c1nc(NCCN(C)C)nc2c1ccc(=O)n2-c1c(F)cccc1F", "note": "[Example 109, 3-(8-(2,6-difluorophenyl)-2-{[2-(dimethylamino)ethyl]amino}-7-oxo-7,8-dihydropyrido[2,3-d]pyrimidin-4-yl)-4-methyl-N-1,3-thiazol-2-ylbenzamide]", "inhibition of neutrophilia": "statistically significant inhibition"}, {"smiles": "CCCCNC(=O)c1ccc(C)c(-c2nc(N3CCC(N4CCC(C)CC4)CC3)nc3c2ccc(=O)n3-c2c(F)cccc2F)c1", "note": "[Example 167, N-butyl-3-[8-(2,6-difluorophenyl)-2-(4-methyl-1,4′-bipiperidin-1′-yl)-7-oxo-7,8-dihydropyrido[2,3-d]pyrimidin-4-yl]-4-methylbenzamide]", "inhibition of neutrophilia": "statistically significant inhibition"}, {"smiles": "Cc1ccc(C(=O)Nc2ccc(F)cc2)cc1-c1nc(NC2CC(C)(C)NC(C)(C)C2)nc2c1ccc(=O)n2-c1c(F)cccc1F", "note": "[Example 66, 3-{8-(2,6-difluorophenyl)-7-oxo-2-[(2,2,6,6-tetramethyl-4-piperidinyl)amino]-7,8-dihydropyrido[2,3-d]pyrimidin-4-yl}-N-(4-fluorophenyl)-4-methylbenzamide]", "inhibition of neutrophilia": "statistically significant inhibition"}, {"smiles": "CCC(C)NC(=O)c1ccc(C)c(-c2nc(NCCCN(CC)CC)nc3c2ccc(=O)n3-c2c(F)cccc2F)c1", "note": "(centres unmarked) [Example 162, 3-[2-{[3-(diethylamino)propyl]amino}-8-(2,6-difluorophenyl)-7-oxo-7,8-dihydropyrido[2,3-d]pyrimidin-4-yl]-4-methyl-N-(1-methylpropyl)benzamide]", "inhibition of neutrophilia": "statistically nonsignificant inhibition"}, {"smiles": "CCN(CC)CCCNc1nc(-c2cc(C(=O)NCCOC)ccc2C)c2ccc(=O)n(-c3c(F)cccc3F)c2n1", "note": "[Example 134, 3-[2-{[3-(diethylamino)propyl]amino}-8-(2,6-difluorophenyl)-7-oxo-7,8-dihydropyrido[2,3-d]pyrimidin-4-yl]-4-methyl-N-[2-(methyloxy)ethyl]benzamidetrifluoroacetate]", "inhibition of neutrophilia": "statistically nonsignificant inhibition"}, {"smiles": "CCCNC(=O)c1ccc(C)c(-c2nc(N3CCC(N)CC3)nc3c2ccc(=O)n3-c2c(F)cccc2F)c1", "note": "[Example 69, 3-[2-(4-amino-1-piperidinyl)-8-(2,6-difluorophenyl)-7-oxo-7,8-dihydropyrido[2,3-d]pyrimidin-4-yl]-4-methyl-N-propylbenzamide]", "inhibition of neutrophilia": "statistically significant inhibition"}, {"smiles": "CCCNC(=O)c1cc(F)c(C)c(-c2nc(NCCCN(CC)CC)nc3c2ccc(=O)n3-c2c(F)cccc2F)c1", "note": "[Example 181, 3-[2-{[3-(diethylamino)propyl]amino}-8-(2,6-difluorophenyl)-7-oxo-7,8-dihydropyrido[2,3-d]pyrimidin-4-yl]-5-fluoro-4-methyl-N-propylbenzamide]", "inhibition of neutrophilia": "statistically nonsignificant inhibition"}, {"smiles": "CCN(CC)CCCNc1nc(-c2cc(C(=O)NC3CCCC3)ccc2C)c2ccc(=O)n(-c3c(F)cccc3F)c2n1", "note": "[Example 125, N-cyclopentyl-3-[2-{[3-(diethylamino)propyl]amino}-8-(2,6-difluorophenyl)-7-oxo-7,8-dihydropyrido[2,3-d]pyrimidin-4-yl]-4-methylbenzamide]", "inhibition of neutrophilia": "statistically nonsignificant inhibition"}, {"smiles": "Cc1ccc(C(=O)NC2CC2)cc1-c1nc(N2CCC(N3CCC(C)CC3)CC2)nc2c1ccc(=O)n2-c1c(F)cccc1F", "note": "[Example 178, N-cyclopropyl-3-[8-(2,6-difluorophenyl)-2-(4-methyl-1,4′-bipiperidin-1′-yl)-7-oxo-7,8-dihydropyrido[2,3-d]pyrimidin-4-yl]-4-methylbenzamide]", "inhibition of neutrophilia": "statistically nonsignificant inhibition"}, {"smiles": "Cc1ccc(C(=O)NC2CCCC2)cc1-c1nc(N2CCC(N)CC2)nc2c1ccc(=O)n2-c1c(F)cccc1F", "note": "[Example 70, 3-[2-(4-amino-1-piperidinyl)-8-(2,6-difluorophenyl)-7-oxo-7,8-dihydropyrido[2,3-d]pyrimidin-4-yl]-N-cyclopentyl-4-methylbenzamide]", "inhibition of neutrophilia": "statistically nonsignificant inhibition"}, {"smiles": "CCN(CC)CCCNc1nc(-c2cc(C(=O)NCC3CCCCC3)ccc2C)c2ccc(=O)n(-c3c(F)cccc3F)c2n1", "note": "[Example 135, N-(cyclohexylmethyl)-3-[2-{[3-(diethylamino)propyl]amino}-8-(2,6-difluorophenyl)-7-oxo-7,8-dihydropyrido[2,3-d]pyrimidin-4-yl]-4-methylbenzamidetrifluoroacetate]", "inhibition of neutrophilia": "inactive"}, {"smiles": "CNCCNc1nc(-c2cc(C(=O)NC3CCCC3)ccc2C)c2ccc(=O)n(-c3c(F)cccc3F)c2n1", "note": "[Example 58, N-cyclopentyl-3-(8-(2,6-difluorophenyl)-2-{[2-(methylamino)ethyl]amino}-7-oxo-7,8-dihydropyrido[2,3-d]pyrimidin-4-yl)-4-methylbenzamide]", "inhibition of neutrophilia": "statistically significant inhibition"}, {"smiles": "CCN(CC)CCCNc1nc(-c2cc(C(=O)NC)ccc2C)c2ccc(=O)n(-c3c(F)cccc3F)c2n1", "note": "[Example 119, 3-[2-{[3-(diethylamino)propyl]amino}-8-(2,6-difluorophenyl)-7-oxo-7,8-dihydropyrido[2,3-d]pyrimidin-4-yl]-N,4-dimethylbenzamide]", "inhibition of neutrophilia": "statistically significant inhibition"}, {"smiles": "CNCCNc1nc(-c2cc(C(=O)NC(C)C)ccc2C)c2ccc(=O)n(-c3c(F)cccc3F)c2n1", "note": "[Example 57, 3-(8-(2,6-difluorophenyl)-2-{[2-(methylamino)ethyl]amino}-7-oxo-7,8-dihydropyrido[2,3-d]pyrimidin-4-yl)-4-methyl-N-(1-methylethyl)benzamide]", "inhibition of neutrophilia": "statistically significant inhibition"}, {"smiles": "CCN(CC)CCCNc1nc(-c2cc(C(=O)NCCF)ccc2C)c2ccc(=O)n(-c3c(F)cccc3F)c2n1", "note": "[Example 133, 3-[2-{[3-(diethylamino)propyl]amino}-8-(2,6-difluorophenyl)-7-oxo-7,8-dihydropyrido[2,3-d]pyrimidin-4-yl]-N-(2-fluoroethyl)-4-methylbenzamidetrifluoroacetate]", "inhibition of neutrophilia": "statistically significant inhibition"}]}]}
